ChEMBL document CHEMBL3400076, “Three-dimensional rational approach to the discovery of potent substituted cyclopropyl urea soluble epoxide hydrolase inhibitors” (Bioorg Med Chem Lett, 2015)

Tests used:
[1] = molecular target: T1, Bifunctional epoxide hydrolase 2 (Homo sapiens, UniProt P34913); test: Inhibition of recombinant human soluble epoxide hydrolase assessed as increase in fluorescence intensity by fluorescence plate reader
T1 sequence (P34913 whole entry): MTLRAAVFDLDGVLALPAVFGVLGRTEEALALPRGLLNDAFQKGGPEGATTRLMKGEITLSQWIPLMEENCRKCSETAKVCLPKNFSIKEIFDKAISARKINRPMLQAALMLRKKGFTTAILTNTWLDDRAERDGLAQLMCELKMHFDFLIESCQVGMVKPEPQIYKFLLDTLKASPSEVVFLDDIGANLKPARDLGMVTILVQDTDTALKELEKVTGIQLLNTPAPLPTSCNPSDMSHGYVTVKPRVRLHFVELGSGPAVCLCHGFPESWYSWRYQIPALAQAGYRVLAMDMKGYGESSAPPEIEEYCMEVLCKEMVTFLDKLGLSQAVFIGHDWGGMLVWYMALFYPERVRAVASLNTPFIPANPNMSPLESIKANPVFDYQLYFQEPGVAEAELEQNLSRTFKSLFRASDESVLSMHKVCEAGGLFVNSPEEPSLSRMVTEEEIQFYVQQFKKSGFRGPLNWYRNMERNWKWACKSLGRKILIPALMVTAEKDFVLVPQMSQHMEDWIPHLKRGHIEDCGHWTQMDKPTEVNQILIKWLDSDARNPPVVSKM

[2] = molecular target: T2, Bifunctional epoxide hydrolase 2 (Rattus norvegicus, UniProt P80299); test: Inhibition of recombinant rat soluble epoxide hydrolase assessed as increase in fluorescence intensity by fluorescence plate reader
T2 sequence (P80299 whole entry): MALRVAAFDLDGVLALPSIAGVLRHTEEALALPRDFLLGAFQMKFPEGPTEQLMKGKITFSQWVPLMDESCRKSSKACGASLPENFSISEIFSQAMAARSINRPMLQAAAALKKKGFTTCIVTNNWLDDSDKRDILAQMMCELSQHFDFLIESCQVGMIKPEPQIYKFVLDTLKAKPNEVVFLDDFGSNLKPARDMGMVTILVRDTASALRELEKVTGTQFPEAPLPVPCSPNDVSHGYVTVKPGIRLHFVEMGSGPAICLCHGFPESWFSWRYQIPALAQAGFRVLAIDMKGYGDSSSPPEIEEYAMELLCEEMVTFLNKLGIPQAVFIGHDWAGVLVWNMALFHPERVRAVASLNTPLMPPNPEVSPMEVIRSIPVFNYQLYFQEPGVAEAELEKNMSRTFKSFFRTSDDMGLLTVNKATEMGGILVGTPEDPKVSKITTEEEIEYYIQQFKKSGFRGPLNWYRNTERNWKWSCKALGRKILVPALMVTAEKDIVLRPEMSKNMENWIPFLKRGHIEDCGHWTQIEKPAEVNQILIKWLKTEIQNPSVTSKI

Row | IC50 [1] | IC50 [2] | SMILES
1 | 75.7 nM | > 100 nM | C[C@@H]1[C@H](NC(=O)N2CCC(Oc3ccc(CCC(=O)O)cc3)CC2)[C@H]1c1ccccc1 (racemic)
2 | 1.4 nM | 0.8 nM | CS(=O)(=O)N[C@@H]1CCCN(C(=O)N[C@@H]2[C@@H](c3ccccc3)[C@H]2c2ccccc2)C1 (mixture of isomers)
3 | 14.4 nM | 27.7 nM | CN1CCN(C(=O)N[C@@H]2[C@@H](c3ccccc3)[C@H]2c2ccccc2)CC1
4 | 2.1 nM | 3.2 nM | O=C(O)CCc1ccc(OC2CCN(C(=O)N[C@@H]3[C@@H](c4ccc(F)cc4)[C@H]3c3ccc(F)cc3)CC2)cc1
5 | 2.3 nM | 3.9 nM | O=C(O)CCc1ccc(OC2CCN(C(=O)N[C@@H]3[C@@H](c4ccccc4)[C@H]3c3ccccc3)CC2)cc1
6 | 12 nM | 11.7 nM | C[C@H]1[C@H](NC(=O)N2CCC(Oc3ccc(CCC(=O)O)cc3)CC2)[C@H]1c1ccccc1 (racemic)
7 | > 100 nM | > 100 nM | CC1(C)[C@H](NC(=O)N2CCC(Oc3ccc(CCC(=O)O)cc3)CC2)[C@H]1c1ccccc1 (racemic)
8 | 1.8 nM | 0.2 nM | O=C(N[C@@H]1[C@@H](c2ccccc2)[C@H]1c1ccccc1)N1CCCCC1
9 | 0.7 nM | 0.2 nM | O=C(N[C@@H]1[C@@H](c2ccccc2)[C@H]1c1ccccc1)N1CCC[C@@H](NS(=O)(=O)c2ccc(F)cc2)C1 (mixture of isomers)
10 | 19.1 nM | 55.6 nM | O=C(O)CCc1ccc(OC2CCN(C(=O)N[C@H]3C[C@@H]3c3ccccc3)CC2)cc1 (racemic)
